Source: patent US7160923B1, “Polyamine analogues as therapeutic and diagnostic agents” (MediQuest Therapeutics, Inc., priority 1997, dated 2007)

Tests used:
[1] = tested on: polyamine transporter (PATr); assay: Polyamine transport (PAT) inhibition assay in MDA-MB-231 cells; assay type: cell-based, human
Method: (§1) In a conventional radiometric assay, the cells are incubated under growth conditions with [5,8-^14C]spermine in serum-free medium for varying intervals. Cells are plated at a known density in 24 well plates in standard tissue culture medium and allowed to adhere and grow for 15–96 hours. Due to the low signal of the radiolabel in this assay, 96 or […] well microplates cannot be used in this assay, creating a major bottleneck for throughput. Cell numbers are determined, and the plate is placed in a temperature controlled system at 37° C. Aminoguanidine is added to the medium to a final concentration of 1 mM. […] The assay is initiated by the mixing of the inhibitor and radioligand. The cells are incubated for an interval of about 1–60 minutes depending on cell type. The assay is terminated by removing the medium and cooling the plates to 4° C. The cells are then washed with cold medium three times, dissolved in 0.1% sodium dodecylsulfate, and the radioactivity in solution is determined by scintillation counting.
Therefore, the growth assay and a kinetic transport assay have been used to validate transport inhibition. […]

[2] = tested on: polyamine transporter (PATr); assay: Radiometric polyamine transport (PAT) assay in A172 cells; assay type: cell-based
Method: as §1, with “In a conventional radiometric assay, the cells are incubated under growth conditions with [5,8-^14C]spermine in serum-free medium for varying intervals.” left out

cultured cells = assay: Fluorescent microscopic analysis of monodansylspermine uptake; assay type: cell-based
Method: Cells were plated in a sterile chambered slide and grown for 15–48 hours to assure adherence of cells to the slide. The medium was removed and replaced with fresh medium containing 1 μM MDS for a 10 minute incubation period at 37° C. The medium was then removed and the cells washed 3 times with phosphate buffered saline. Glycerol (50% v/v) in a volume of […] was added to the chamber, and the slide was removed and covered with a cover slip.
Using a fluorescence microscope with filters set for excitation at 340 nm and emission at 530 nm, the slide was observed under normal light and with fluorescence. Uptake of the dansylated spermine was observed microscopically and recorded on photograph.

[3] = tested on: T-cell acute lymphoblastic leukemias (ALL), glioblastomas, prostate, and colon cell lines; assay: In vitro test in combination with ODC inhibitors against several human cancer cell lines; assay type: cell-based
Method: DACS was tested in vitro in combination with ODC inhibitors against several human cancer cell lines. These include T-cell acute lymphoblastic leukemias (ALL), glioblastomas, prostate, and colon cell lines.

[4] = tested on: MDA-MB-231 human breast carcinoma cells; assay: Growth assay of MDA-MB-231 cells with and without ODC inhibitor (DFMO), 1 μM spermidine; assay type: cell-based; details: for R: ratio of the IC50 in the absence of DFMO over the IC50 in the presence of DFMO, MDA growth assay
Source text: The ratio, R is the IC50 for […] relative to the IC50 for the polyamine analogue combined with an ODC inhibitor. This value of R, indicates the relative level of “synergism” between the polyamine analogue and ODC inhibitor.

[5] = tested on: polyamine transporter (PATr); assay: Polyamine transport (PAT) inhibition assay in MDA-MB-231 cells; assay type: cell-based, human; remark: listed apart in the source
[6] = molecular target: spermidine/spermine acetyltransferase (SSAT) (Homo sapiens, UniProt P21673); assay: Spermidine/spermine acetyltransferase (SSAT) enzyme assay; assay type: biochemical; details: varying concentrations; 1 mM spermidine, 1 mM 14C-Acetyl CoA, pH 7.8
spermidine/spermine acetyltransferase (SSAT), sequence (P21673 whole entry, species assumed): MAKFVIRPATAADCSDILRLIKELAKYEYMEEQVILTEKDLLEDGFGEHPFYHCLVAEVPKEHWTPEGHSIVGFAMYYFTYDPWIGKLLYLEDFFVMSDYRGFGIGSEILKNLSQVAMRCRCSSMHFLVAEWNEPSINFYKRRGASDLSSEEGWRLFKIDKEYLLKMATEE
Method: A study was conducted to determine whether the compositions of the present invention, designed as PAT inhibitors, had other activities on the PA system. Specifically, the ability of DACS to inhibit an enzyme involved in PA recycling was evaluated. The method used was as described in Casero, R. A. et al., Biochem. J270:615–620 (1990) hereby incorporated by reference in its entirety. This assay measures the incorporation of ^14C-labeled acetyl CoA into spermidine to form acetylspermidine. Varying concentrations of DACS were added to a reaction mixture containing HEPES buffer, pH 7.8, 1 mM spermidine, and 1 mM ^14C-Acetyl CoA. The product is isolated by binding to phosphocellulose filter paper and the extent of reaction is determined by scintillation counting.

neoplastic vessels = details: one month of treatment, humans with cervical interepithelial neoplasia; cited from earlier work
[7] = tested on: murine L1210 leukemia cells; details: cited from earlier work
cancer cells = details: cited from earlier work
[8] = parallel library products, purity estimated greater than 80%, read-out: Ki μM, Inhibition of the Polyamine Transporter in MDA-MB-231 Cell Line
[9] = MDA-MB-231 cell PATr, read-out: Ki for the PATr

Work on `NCCCNCCCCNCCCNS(=O)(=O)c1cccc2ccccc12` yielded a Ki [1, 8] of 0.19 µM.

With `NCCCCNS(=O)(=O)c1cccc2ccccc12` the Ki [1, 8] was greater than 30 µM.

Compound `NCCCNCCCCNCCCNS(=O)(=O)c1ccc2ccccc2c1` has a Ki [1, 8] of 0.15 µM.

In the case of `NCCCCNS(=O)(=O)c1ccc2ccccc2c1`, the Ki [1, 8] is reported as 5 µM.

Compound `CC1(C)C2CCC1(CS(=O)(=O)NCCCNCCCCNCCCN)C(=O)C2` (stereo not shown) has a Ki [1, 8] greater than 10 µM.

`CC1(C)C2CCC1(CS(=O)(=O)NCCCCN)C(=O)C2` (stereo not shown) gave a Ki [1, 8] greater than 30 µM.

In the case of `CN(C)c1cccc2c(S(=O)(=O)NCCCNCCCCNCCCN)cccc12` [Compound 3, N^1-dansylspermine], the Ki [1, 9] is reported as 0.08 µM, the “displacement of 3H-spermidine in the transport assay” value ([2]; A172 cells) is reported as “competitively displace” and the intracellular localization (cultured cells) is reported as “localize specifically to the nucleoli and the nuclear membrane”. The “uptake of the fluorescent probe into cells” value (cultured cells; 1 μM, 10 minute incubation at 37° C.) was “took up the labeled material”.

With `CN(C)c1cccc2c(S(=O)(=O)NCCCCCC(=O)NCCCNCCCCNCCCN)cccc12` [Compound 4, N^1-[(N^6-dansyl)-6-aminocaproyl]spermine] the “effectiveness against tumor cell lines in vitro” value [3] was “effective against all these tumor cell lines in vitro”, the cell growth reduced ([4]; DACS plus ODC inhibitor in the presence of polyamines, by day 3) was 69% and the IC50 ([4]; Homo sapiens, MDA-MB-231, with ODC inhibitor, 1.0 μM supplemented polyamines, read-out: IC50 for growth in combination with an ODC inhibitor) was 600 nM. The “concentration at which the compound alone becomes growth inhibitory” value ([4]; alone, without ODC inhibitor) was 300 µM, the “prevention of rescue from ODC inhibition by natural polyamines” value ([4]; putrescine, spermidine, N1-acetylspermine and N1-acetylspermidine) was “prevents” and the R [4] was 400. For the same compound, the Ki ([5]; putrescine uptake, read-out: Ki, putrescine uptake) was 5.4 nM, the Ki ([5]; spermidine uptake, read-out: Ki, spermidine uptake) was 8 nM and the “inhibition of SSAT enzymatic activity” value [6] was “inhibited spermidine/spermine acetyltransferase (SSAT) in a dose-related manner”.

In the case of `NCCCNCCCCNCCCNC(=O)CCCCCNS(=O)(=O)c1ccc(CNC(=O)c2ccc(Cl)cc2)s1` [Compound 5, N^1-[(N^6–5-(4-chlorobenzamidomethyl)-thiophene-2-sulfonyl)-6-aminocaproyl]spermine], the R [4] is reported as 210.

For `NCCCNCCCCNCCCNC(=O)CCCCCNS(=O)(=O)c1ccc2oc3ccccc3c2c1` [Compound 6], the R [4] was 220.

`NCCCNCCCCNCCCNS(=O)(=O)c1ccc2ccc3cccc4ccc1c2c34` [Compound 15, N^1-(1-pyrenylsulfonyl)spermine] gave a Ki [1, 9] of 0.091 µM.

With `CN(C)CCCN1c2ccccc2CCc2ccccc21` [Compound 165, imipramine, reference compound] the “inhibition of the PAT assay” value ([1]; MDA cell line) was “inhibited the PAT assay”, the Ki ([1]; MDA cells, read-out: Ki, non-competitive inhibitor of PAT) was 0.5 µM and the “inhibition of polyamine transport” value ([1]; cell line not stated at the place (Example XXII: A172 and MDA)) was “inhibited polyamine transport”. For the same compound, the “inhibition of the PAT assay” value ([2]; A172 cell line) was “inhibited the PAT assay” and the Ki ([2]; A172 cells, read-out: Ki, non-competitive inhibitor of PAT) was 41 nM.

For `NCCC[C@](N)(C(=O)O)C(F)F` [DFMO, α-difluoromethylornithine], the “reduction in neoplastic vessel count” value (neoplastic vessels) is given as 50%, the survival ([7]; DFMO mice transplanted with PAT-deficient L1210 cells) is given as greater than 60 days and the time to death ([7]; mice with wild-type L1210 cells (intact PAT), treated with DFMO) is given as 12 days.

For `NCCCCN(CCCN)CCCNC(=O)CCCc1ccc(N(CCCl)CCCl)cc1` [chlorambucil-spermidine conjugate], the “fold increase in cytotoxicity compared to chlorambucil alone” value (cancer cells) is given as no more than 225 fold.
